According to PubChem BioAssay (NCI):
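A five-concentration, 48-hour dose response in 96-well plates underlies each endpoint, interpolated linearly between surrounding concentrations. TGI is the concentration that stops growth completely.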

Experiments:
Assay in all cases: NCI tumour cell line growth inhibition, 48 h
K-562 leukemia = test system: K-562 leukemia
HCC-2998 colon = test system: HCC-2998 colon
HOP-92 NSCLC = test system: HOP-92 NSCLC
COLO 205 colon = test system: COLO 205 colon
SK-MEL-2 melanoma = test system: SK-MEL-2 melanoma
CAKI-1 renal = test system: CAKI-1 renal
SNB-75 CNS = test system: SNB-75 CNS
786-0 renal = test system: 786-0 renal
HOP-62 NSCLC = test system: HOP-62 NSCLC
SR leukemia = test system: SR leukemia
MOLT-4 leukemia = test system: MOLT-4 leukemia
RXF-631 renal = test system: RXF-631 renal
NCI-H226 lung = test system: NCI-H226 lung
HCT-116 colon = test system: HCT-116 colon
SK-OV-3 ovarian = test system: SK-OV-3 ovarian
UO-31 renal = test system: UO-31 renal
HL-60(TB) leukemia = test system: HL-60(TB) leukemia
CCRF-CEM leukemia = test system: CCRF-CEM leukemia
A498 renal = test system: A498 renal
SNB-78 CNS = test system: SNB-78 CNS
M19-MEL melanoma = test system: M19-MEL melanoma
MALME-3M melanoma = test system: MALME-3M melanoma
NCI-H23 lung = test system: NCI-H23 lung
SF-268 CNS = test system: SF-268 CNS
M14 melanoma = test system: M14 melanoma
DMS 273 small cell lung = test system: DMS 273 small cell lung
ACHN renal = test system: ACHN renal
NCI-H522 lung = test system: NCI-H522 lung
RPMI-8226 leukemia = test system: RPMI-8226 leukemia
SK-MEL-28 melanoma = test system: SK-MEL-28 melanoma
IGROV1 ovarian = test system: IGROV1 ovarian
LXFL 529 NSCLC = test system: LXFL 529 NSCLC
NCI-H460 lung = test system: NCI-H460 lung
OVCAR-4 ovarian = test system: OVCAR-4 ovarian
UACC-62 melanoma = test system: UACC-62 melanoma
DMS 114 small cell lung = test system: DMS 114 small cell lung
DLD-1 colon = test system: DLD-1 colon
SF-295 CNS = test system: SF-295 CNS
TK-10 renal = test system: TK-10 renal
OVCAR-3 ovarian = test system: OVCAR-3 ovarian
UACC-257 melanoma = test system: UACC-257 melanoma
SN12C renal = test system: SN12C renal
SF-539 CNS = test system: SF-539 CNS
A549 NSCLC = test system: A549 NSCLC
LOX IMVI melanoma = test system: LOX IMVI melanoma
HT29 colon = test system: HT29 colon
OVCAR-5 ovarian = test system: OVCAR-5 ovarian
HCT-15 colon = test system: HCT-15 colon
RXF 393 renal = test system: RXF 393 renal
SK-MEL-5 melanoma = test system: SK-MEL-5 melanoma
KM20L2 colon = test system: KM20L2 colon
SNB-19 CNS = test system: SNB-19 CNS
XF 498 CNS = test system: XF 498 CNS
HOP-18 NSCLC = test system: HOP-18 NSCLC
U251 CNS = test system: U251 CNS
OVCAR-8 ovarian = test system: OVCAR-8 ovarian
EKVX NSCLC = test system: EKVX NSCLC
KM12 colon = test system: KM12 colon
SW-620 colon = test system: SW-620 colon

Compound: COc1cc([C@H]2Oc3cc(O)c4c(=O)cc(-c5ccc(O)cc5)oc4c3O[C@@H]2CO)ccc1O
- TGI (K-562 leukemia): 83.5 µM
- TGI (HCC-2998 colon): 28.5 µM
- TGI (HOP-92 NSCLC): 60.7 µM
- TGI (COLO 205 colon): 31.7 µM
- TGI (SK-MEL-2 melanoma): 30.7 µM
- TGI (CAKI-1 renal): 44.9 µM
- TGI (SNB-75 CNS): 18.5 µM
- TGI (786-0 renal): 29.3 µM
- TGI (HOP-62 NSCLC): 33.5 µM
- TGI (SR leukemia): 47.8 µM
- TGI (MOLT-4 leukemia): 53.9 µM
- TGI (RXF-631 renal): 24.1 µM
- TGI (NCI-H226 lung): 39 µM
- TGI (HCT-116 colon): 26.4 µM
- TGI (SK-OV-3 ovarian): 36.6 µM
- TGI (UO-31 renal): 54.2 µM
- TGI (HL-60(TB) leukemia): 53 µM
- TGI (CCRF-CEM leukemia): 44.3 µM
- TGI (A498 renal): 35.2 µM
- TGI (SNB-78 CNS): 98.1 µM
- TGI (M19-MEL melanoma): 36.8 µM
- TGI (MALME-3M melanoma): 33.3 µM
- TGI (NCI-H23 lung): 31.1 µM
- TGI (SF-268 CNS): 5.79 µM
- TGI (M14 melanoma): 34 µM
- TGI (DMS 273 small cell lung): 31.8 µM
- TGI (ACHN renal): 63.4 µM
- TGI (NCI-H522 lung): 18.6 µM
- TGI (RPMI-8226 leukemia): 46 µM
- TGI (SK-MEL-28 melanoma): 28 µM
- TGI (IGROV1 ovarian): 59.3 µM
- TGI (LXFL 529 NSCLC): 29.2 µM
- TGI (NCI-H460 lung): 17.8 µM
- TGI (OVCAR-4 ovarian): 63.2 µM
- TGI (UACC-62 melanoma): 34.2 µM
- TGI (DMS 114 small cell lung): 40 µM
- TGI (DLD-1 colon): 32.3 µM

Compound: CN(CCO)c1nc2c(c(=O)[nH]1)CNCC2
- TGI (SF-295 CNS): > 100 µM
- TGI (K-562 leukemia): > 100 µM
- TGI (TK-10 renal): > 100 µM
- TGI (OVCAR-3 ovarian): > 100 µM
- TGI (UACC-257 melanoma): > 100 µM
- TGI (HCC-2998 colon): > 100 µM
- TGI (HOP-92 NSCLC): > 100 µM
- TGI (SN12C renal): > 100 µM
- TGI (COLO 205 colon): > 100 µM
- TGI (SF-539 CNS): > 100 µM
- TGI (SK-MEL-2 melanoma): > 100 µM
- TGI (A549 NSCLC): > 100 µM
- TGI (CAKI-1 renal): > 100 µM
- TGI (SNB-75 CNS): > 100 µM
- TGI (786-0 renal): > 100 µM
- TGI (HOP-62 NSCLC): > 100 µM
- TGI (SR leukemia): > 100 µM
- TGI (MOLT-4 leukemia): > 100 µM
- TGI (LOX IMVI melanoma): > 100 µM
- TGI (HT29 colon): > 100 µM
- TGI (OVCAR-5 ovarian): > 100 µM
- TGI (HCT-15 colon): > 100 µM
- TGI (NCI-H226 lung): > 100 µM
- TGI (HCT-116 colon): > 100 µM
- TGI (RXF 393 renal): > 100 µM
- TGI (SK-OV-3 ovarian): > 100 µM
- TGI (UO-31 renal): > 100 µM
- TGI (SK-MEL-5 melanoma): > 100 µM
- TGI (HL-60(TB) leukemia): > 100 µM
- TGI (CCRF-CEM leukemia): > 100 µM
- TGI (SNB-78 CNS): > 100 µM
- TGI (M19-MEL melanoma): > 100 µM
- TGI (MALME-3M melanoma): > 100 µM
- TGI (KM20L2 colon): > 100 µM
- TGI (NCI-H23 lung): > 100 µM
- TGI (SNB-19 CNS): > 100 µM
- TGI (SF-268 CNS): > 100 µM
- TGI (XF 498 CNS): > 100 µM
- TGI (HOP-18 NSCLC): > 100 µM
- TGI (M14 melanoma): > 100 µM
- TGI (DMS 273 small cell lung): > 100 µM
- TGI (U251 CNS): > 100 µM
- TGI (ACHN renal): > 100 µM
- TGI (OVCAR-8 ovarian): > 100 µM
- TGI (NCI-H522 lung): > 100 µM
- TGI (RPMI-8226 leukemia): > 100 µM
- TGI (SK-MEL-28 melanoma): > 100 µM
- TGI (IGROV1 ovarian): > 100 µM
- TGI (EKVX NSCLC): > 100 µM
- TGI (LXFL 529 NSCLC): > 100 µM
- TGI (KM12 colon): > 100 µM
- TGI (NCI-H460 lung): > 100 µM
- TGI (OVCAR-4 ovarian): > 100 µM
- TGI (UACC-62 melanoma): > 100 µM
- TGI (SW-620 colon): > 100 µM
- TGI (DMS 114 small cell lung): > 100 µM
- TGI (DLD-1 colon): > 100 µM
